According to patent US11542295B2, “Use of 20-hydroxyecdysone and the derivatives thereof in the treatment of myopathies” (BIOPHYTIS, priority 2017, dated 2023):

Assays:
[1] = system: myh7 (beta myosin heavy chain); experiment: Heart mRNA expression of hypertrophy marker myh7 (semi-quantitative PCR); type: in vivo, mouse; conditions: mdx mice, 50 mg/kg*day, two months; p<0.01
Protocol: Twelve-week-old […] gene pool (wild mice referred to as “C57” in the figures) and […] mdx (mouse model of Duchenne muscular dystrophy, referred to as “mdx” in the figures) male mice, produced at Charles Rivers, were used. Two groups of mdx were chronically exposed per os either to BIO101 (number of mice n=9) or to BIO103 (number of mice n=9) at a dose of 50 mg/kg*day. A group of C57 mice (number of mice n=5) and a group of mdx mice (number of mice n=15) received the vehicle, i.e. no treatment. The animals of all of the groups were tested for their functional capacity (exertion tolerance test) after two months of treatment. The exertion tolerance test consists of measuring the maximum distance travelled (in-toto activity; FIGS. 1A and 1B). […] The extract RNA is quantified by spectrophotometry then the quality thereof is verified and validated with the Experion RNA StdSens Analysis Kit (Bio-Rad). […] Finally, semi-quantitative PCR analysis was carried out using SYBR® Green (Roche), a DNA intercalating agent and a LightCycler® 480 Real Time PCR (Roche) apparatus on 384-well plates. The molecular markers measured are as follows: • CTGF and collagen I: connective tissue growth factor (CTGF) is associated with healing and with many pathological fibrotic processes including DMD (Brigstock 2010; Song Y. 2017). […]

[2] = system: C57BL10 mdx mice (mouse model of Duchenne muscular dystrophy); experiment: Exertion tolerance test (forced motorised treadmill, maximum distance travelled); type: in vivo; conditions: 50 mg/kg*day per os, two months of treatment
Protocol: Twelve-week-old […] gene pool (wild mice referred to as “C57” in the figures) and […] mdx (mouse model of Duchenne muscular dystrophy, referred to as “mdx” in the figures) male mice, produced at Charles Rivers, were used. Two groups of mdx were chronically exposed per os either to BIO101 (number of mice n=9) or to BIO103 (number of mice n=9) at a dose of 50 mg/kg*day. A group of C57 mice (number of mice n=5) and a group of mdx mice (number of mice n=15) received the vehicle, i.e. no treatment. The animals of all of the groups were tested for their functional capacity (exertion tolerance test) after two months of treatment. The exertion tolerance test consists of measuring the maximum distance travelled (in-toto activity; FIGS. 1A and 1B). Furthermore, measurements of the maximum absolute isometric strength of the tibialis anterior muscle (in-situ activity; FIGS. 2A and 2B) were made after two months of treatment. The two-month oral treatment consists of force-feeding for five days a week and in drinking water two days a week. The exertion tolerance test is a forced motored treadmill exercise. It is a non-invasive method for assessing in-toto skeletal function. It is gold standard method in the field (Ferry et al. 1992, 1993; Hadj-Said et al. 2012). The acclimatisation period of the animals is at least 48 hours prior to the session during which the maximum running distance is measured. During the test, the mouse is placed in a running corridor on a motorised treadmill which enables a exercise controlled by the tester in the intensity and duration thereof. The treadmill ends with a horizontal grid which administers an electric shock (0.4 mA) if the animal is in contact for more than one second with the grid. The running session starts with a 2-minute warm-up period during which the speed is increased from 0 to 20 cm/s. Subsequently, the running speed is increased by 5 cm/s every 10 minutes up to the limit of the peak capacities of the mouse. When it is subjected to 5 shocks in less than 10 seconds, the test is stopped. The distance travelled is noted.

[3] = system: tibialis anterior muscle of C57BL10 mdx mice; experiment: Skeletal muscle vascularisation (number of vessels per muscle fibre, anti-laminin / anti-CD31 labelling); type: in vivo, mouse; conditions: 50 mg/kg*day per os, two months of daily exposure
Protocol: A quantitative vascularisation study was carried out on sections of tibialis anterior muscle (abbreviated as TA) of healthy C57 mice as well as on mdx mice treated with the vehicle and mdx mice treated with BIO101 or BIO103. Double immunofluorescence labelling is carried out, anti-laminin labelling with the function of identifying the basal membrane of the muscle fibres and anti-CD31 labelling having the function of identifying the vessel. The number of vessels per muscle fibre is quantified. The mdx animals received daily, per os, either the vehicle or BIO101 (50 mg/kg*day) or BIO103 (50 mg/kg*day).

| Structure (SMILES) | expression of myh7 in heart compared to mdx animals receiving the vehicle [1] | improvement of overall physical performances (in-toto activity) [2] [fold] | improvement of the distance travelled compared to untreated mdx animals (vehicle) [2] | increase of the number of vessels per muscle fibre compared to untreated mdx animals (vehicle) [3] [%] |
| --- | --- | --- | --- | --- |
| CC(C)(O)CC[C@@H](O)[C@](C)(O)[C@H]1CC[C@@]2(O)C3=CC(=O)[C@@H]4C[C@@H](O)[C@@H](O)C[C@]4(C)[C@H]3CC[C@]12C [BIO101, 20-hydroxyecdysone] | significantly reduces | 2.4 | +136% | 14.1 |
| CCSCC(=O)[C@H]1CC[C@@]2(O)C3=CC(=O)[C@@H]4C[C@@H](O)[C@@H](O)C[C@]4(C)C3CC[C@]12C (stereo partly drawn) [BIO103, (2S,3R,5R,10R,13R,14S,17S)-17-(2-ethylsulfanylacetyl)-2,3,14-trihydroxy-10,13-dimethyl-2,3,4,5,9,11,12,15,16,17-decahydro-1H-cyclopenta[a]phenanthren-6-one] | significantly reduces | 1.7 | +67% | 28.2 |
